The text below walks through data of paper PMC11061419, “Identification of novel small molecule inhibitors of twin arginine translocation (Tat) pathway and their effect on the control of Campylobacter jejuni in chickens” (Frontiers in Microbiology, 2024).

One assay concerns C. jejuni 81–176. The assay can be described thus: Copper sulfate sensitivity dose–response assay in vitro (MIC/MBC). The class given is cell-based, Campylobacter jejuni. Conditions: for MBC / MIC: Campylobacter jejuni, 0.5 mM CuSO4, head displaced; for MBC: read-out: MBC, C. jejuni (Table S5); for MIC: read-out: MIC, C. jejuni (Table S4); for C. jejuni 81–176 in vitro MBC: minimal bactericidal concentration in presence of 0.5 mM CuSO4; for C. jejuni 81–176 in vitro MIC: minimal bacteriostatic concentration in presence of 0.5 mM CuSO4. How it is done: In total, 19 SMs were two-fold serially diluted to obtain a final SM concentration ranging from 6.25 to 0.012 μg/mL. C. jejuni 81–176 was then treated with a determined concentration of SM, as described in the copper sensitivity assay. […] The lowest bactericidal SM concentration was considered the MBC (no increase in OD600 over time and no viable cells were recovered on agar plate after challenge) (N = 3 replicates per SM). […] However, these SMs were two-fold serially diluted to obtain a final SM concentration ranging from 5 μg to 0.0625 μg for testing (N = two independent experiments with four technical replicate for each SM).

Assay [1] has as its system Campylobacter spp. (12 strains). The assay can be described thus: Activity spectrum against Campylobacter strains at 6.25 μg/mL with 0.5 mM CuSO4. The class given is cell-based, Campylobacter jejuni, Campylobacter coli. Conditions: 6.25 μg/mL SM.
Assay [2] deals with C. jejuni (mixture of five strains) in chicken ceca. The assay can be described thus: C. jejuni persistence in ceca of 5-week-old colonized chickens. The class given is in vivo. Conditions: for decrease of cecal C. jejuni colonization/load: 3 and 5-week-old chickens, 5-day treatment twice a day, 0.225 mg or 0.127 mg of SM per kg body weight; for reduction in C. jejuni population per gram of cecum compared with the DMSO control group: 5-week-old chickens, oral twice a day for 5 days, approximately 0.225 mg of SM per kg body weight. How it is done:
Four SMs (T1, T2, T7, and T8) were selected from the initial list of eight SMs based on their low MBC in Caco2 cells (<5 μg SM/ml), low cytotoxicity indexes (<20% toxicity at 5 μg SM /ml), and their minimal effect on commensal bacterial species (less than two species inhibited by the SM out of the seven strains tested; Table 1). The antimicrobial efficacy of our SM was tested on 5-week-old chickens, to assess the clearance of C. jejuni load right before slaughter age. Overall, 5-week-old Campylobacter-free, i.e., specific pathogen-free [SPF] chickens were inoculated orally with a mixture of five C. jejuni strains (10^5 CFU/chicken, Supplementary Table S3). Rectal swabs were collected 1 day post-inoculation (DPI) to confirm C. jejuni colonization (CFU/g of feces) in birds. From 2 DPI to 7 DPI, groups of 4–5 chickens were treated orally twice a day with one of the four SMs (T1, T2, T7, or T8; approximately 0.225 mg of SM per kg body weight). Details of the treatment groups and the inoculum are shown in Supplementary Table S3.
For both experiments, C. jejuni colonized-chickens treated with 0.0001% DMSO and colonized chickens without additional carrier treatment (non-treated) were used as controls (n = 3–6 chicken per group). Details of the treatment groups and the inoculum are shown in Supplementary Table S3. Both 3 and 5-week-old chickens were euthanized at 7 DPI using carbon dioxide gas and ceca (cecal content and the pouch) and were aseptically collected. One of the ceca pairs was immediately stored at −80°C for microbiota studies. The other ceca were suspended in 1X PBS, homogenized, serially diluted, plated on MH media supplemented with Campylobacter Selective Supplement (CSS) agar plate, and incubated for 48 h at 42°C in microaerophilic conditions to determine C. jejuni load in the ceca (CFU/g of ceca).

Assay [3] has the same test system. The experiment in a line: C. jejuni persistence in ceca of 3-week-old colonized chickens. In kind it is in vivo. Conditions: 3-week-old chickens, oral twice a day for 5 days, approximately 0.127 mg of SM per kg body weight. How it is done:
The antimicrobial efficacy of T1, T7, and T8 was also tested on 3-week-old chickens to assess the clearance of C. jejuni load in chicken right after inoculation. Overall, 3-week-old Campylobacter-free chickens were inoculated orally with a mixture of five C. jejuni strains (10^5 CFU/chicken, Supplementary Table S3). Rectal swabs were collected 1 DPI to confirm the intestinal colonization of the birds by C. jejuni (CFU/g of feces). From 2 DPI, chickens were treated orally twice a day for 5 days (from 2 DPI to 7 DPI) with one of the SMs (T1, T7, or T8; approximately 0.127 mg of SM per kg body weight; n = 5–6 chicken per group). Details of the treatment groups and the inoculum are shown in Supplementary Table S3.
For both experiments, C. jejuni colonized-chickens treated with 0.0001% DMSO and colonized chickens without additional carrier treatment (non-treated) were used as controls (n = 3–6 chicken per group). Details of the treatment groups and the inoculum are shown in Supplementary Table S3. Both 3 and 5-week-old chickens were euthanized at 7 DPI using carbon dioxide gas and ceca (cecal content and the pouch) and were aseptically collected. One of the ceca pairs was immediately stored at −80°C for microbiota studies. […]

Values after ≈ are worked out from the molar mass of the structure shown.

The MBC is the lowest tested concentration that kills the bacteria rather than only halting them. Broadly, the MIC is the lowest concentration found to suppress growth.

For the compound `CC(C)(C)NC(=S)NNc1c(Cl)cncc1Cl` [T2], in the assay with C. jejuni 81–176, the MBC amounted to 0.62 µg/mL (≈ 2.11 µM), the MIC was 0.01 µg/mL (≈ 0.0341 µM), the “C. jejuni 81–176 in vitro MBC” value is 0.62 µg/mL and the “C. jejuni 81–176 in vitro MIC” value came out at 0.01 µg/mL. The “Growth inhibition at 6.25 μg/mL, Campylobacter spp. (strains inhibited/tested)” value (“Growth inhibition … (strains inhibited/tested)” below) in assay [1] is given as 12/12. Also, in assay [2], the “decrease of cecal C. jejuni colonization/load” value is reported as “up to 1.2 log” and the “reduction in C. jejuni population per gram of cecum compared with the DMSO control group” value is on record as 1.2 log.

Regarding `CCCNC(=S)Nc1cc(OC)cc(OC)c1` [T1], in the assay with C. jejuni 81–176, the MBC amounted to 0.62 µg/mL (≈ 2.44 µM), the MIC stood at 0.19 µg/mL (≈ 0.747 µM), the “C. jejuni 81–176 in vitro MBC” value came out at 0.62 µg/mL and the “C. jejuni 81–176 in vitro MIC” value was 0.19 µg/mL. The “Growth inhibition … (strains inhibited/tested)” value in assay [1] is given as 12/12. Moreover, the “reduction in C. jejuni population per gram of cecum compared with the DMSO control group” value in assay [2] is recorded as “did not reduce”.

As for `CSc1ccccc1-c1nnc(NC(=O)Cc2ccccc2)o1` [T7], in the assay with C. jejuni 81–176, the MBC came out at 0.16 µg/mL (≈ 0.492 µM), the MIC worked out at 0.02 µg/mL (≈ 0.0615 µM), the “C. jejuni 81–176 in vitro MBC” value turned out to be 0.16 µg/mL and the “C. jejuni 81–176 in vitro MIC” value is 0.02 µg/mL. The “Growth inhibition … (strains inhibited/tested)” value in assay [1] was 12/12. Moreover, in assay [2], the “decrease of cecal C. jejuni colonization/load” value is “up to 1.2 log” and the “reduction in C. jejuni population per gram of cecum compared with the DMSO control group” value amounted to 0.5 log. The “reduction in C. jejuni population per gram of cecal contents compared with the DMSO-treated group” value in assay [3] came out at 0.9 log.

`CCN(CC)/C(C)=N/C(=O)Nc1ccccc1` [T8]: in the assay on C. jejuni 81–176, the MBC turned out to be 0.12 µg/mL (≈ 0.514 µM), the MIC is 0.08 µg/mL (≈ 0.343 µM), the “C. jejuni 81–176 in vitro MBC” value is 0.12 µg/mL and the “C. jejuni 81–176 in vitro MIC” value turned out to be 0.08 µg/mL. Further, the “Growth inhibition … (strains inhibited/tested)” value in assay [1] is on record as 12/12. In assay [2], the “reduction in C. jejuni population per gram of cecum compared with the DMSO control group” value came to 0.5 log.
